Test results from ChEMBL document CHEMBL5154751, “Intramolecular Interactions Enhance the Potency of Gallinamide A Analogues against Trypanosoma cruzi” (J Med Chem, 2022).

What was measured:
[1] = Cytotoxicity against mouse C2C12 cells assessed as lethal dose; format: toxicity, cell-based; conditions: read-out: LD50 (the source's name)
Cruzipain = Cruzipain (Trypanosoma cruzi, UniProt P25779); experiment: Inhibition of Trypanosoma cruzi cruzain using Z-FR-AMC as substrate preincubated for 10 mins followed by substrate addition by fluorimetric analysis
Trypanosoma cruzi = experiment: Antitrypanosomal activity against amastigotes form of Trypanosoma cruzi CA-I/72 infected in mouse C2C12 cells assessed as parasite infection level by DAPI staining based microscopic analysis; format: functional, organism-based; conditions: CA-I/72, C2C12

Chain of Cruzipain (P25779 whole entry): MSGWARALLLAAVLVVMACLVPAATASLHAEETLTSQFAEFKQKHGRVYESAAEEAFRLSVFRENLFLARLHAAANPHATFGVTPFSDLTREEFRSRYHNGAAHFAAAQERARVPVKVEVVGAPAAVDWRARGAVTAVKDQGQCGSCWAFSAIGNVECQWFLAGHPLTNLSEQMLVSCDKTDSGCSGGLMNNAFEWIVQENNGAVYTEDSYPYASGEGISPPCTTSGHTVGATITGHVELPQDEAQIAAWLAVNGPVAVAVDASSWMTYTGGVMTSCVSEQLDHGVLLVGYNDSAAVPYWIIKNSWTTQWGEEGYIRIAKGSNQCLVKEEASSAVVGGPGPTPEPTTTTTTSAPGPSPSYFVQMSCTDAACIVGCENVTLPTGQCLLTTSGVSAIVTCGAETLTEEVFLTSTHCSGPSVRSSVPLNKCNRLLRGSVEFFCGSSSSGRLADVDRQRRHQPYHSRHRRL

Work on `COC1=CC(=O)N(C(=O)/C=C/[C@H](C)NC(=O)[C@H](CC(C)C)NC(=O)[C@H](CC(C)C)NC(=O)[C@H](C(C)C)N(C)C)[C@H]1Cc1c[nH]c2ccccc12` yielded a CC50 [1] greater than 600 nM.

Work on `COC1=CC(=O)N(C(=O)/C=C/[C@H](C)NC(=O)[C@H](CC(C)C)NC(=O)[C@H](CC(C)C)NC(=O)C2CCN(C)CC2)[C@H]1Cc1c[nH]c2ccccc12` yielded a CC50 [1] greater than 600 nM.

`COC1=CC(=O)N(C(=O)/C=C/[C@H](C)NC(=O)[C@H](CC(C)C)NC(=O)[C@H](CC2CCCCC2)NC(=O)C2CCN(C)CC2)[C@H]1Cc1c[nH]c2ccccc12` showed a CC50 [1] greater than 600 nM.

`COC1=CC(=O)N(C(=O)/C=C/[C@H](C)NC(=O)[C@H](CC2CCCCC2)NC(=O)[C@H](CC(C)C)NC(=O)C2CCN(C)CC2)[C@H]1Cc1c[nH]c2ccccc12` showed a CC50 [1] greater than 600 nM.

Work on `COC1=CC(=O)N(C(=O)/C=C/[C@H](C)NC(=O)[C@H](CC2CCCCC2)NC(=O)[C@H](CC2CCCCC2)NC(=O)C2CCN(C)CC2)[C@H]1Cc1c[nH]c2ccccc12` yielded a CC50 [1] greater than 600 nM.

`COC1=CC(=O)N(C(=O)/C=C/[C@H](C)NC(=O)[C@H](CC(C)C)NC(=O)[C@H](Cc2ccccc2)NC(=O)[C@H](C(C)C)N(C)C)[C@H]1Cc1c[nH]c2ccccc12` gave a CC50 [1] greater than 600 nM.

`COC1=CC(=O)N(C(=O)/C=C/[C@H](C)NC(=O)[C@H](CCc2ccccc2)NC(=O)[C@H](CC(C)C)NC(=O)[C@H](C(C)C)N(C)C)[C@H]1Cc1c[nH]c2ccccc12` gave a CC50 [1] greater than 600 nM.

Compound `COC1=CC(=O)N(C(=O)/C=C/[C@H](C)NC(=O)[C@H](CC(C)C)NC(=O)[C@H](CC2CCCCC2)NC(=O)[C@H](C(C)C)N(C)C)[C@H]1Cc1c[nH]c2ccccc12` has a CC50 [1] greater than 600 nM.

With `COC1=CC(=O)N(C(=O)/C=C/[C@H](CCc2ccccc2)NC(=O)[C@H](CC(C)C)NC(=O)[C@H](CC(C)C)NC(=O)[C@H](C(C)C)N(C)C)[C@H]1Cc1c[nH]c2ccccc12` the CC50 [1] was greater than 600 nM.

For `COC1=CC(=O)N(C(=O)/C=C/[C@H](C)NC(=O)[C@H](CC2CCCCC2)NC(=O)[C@H](CC(C)C)NC(=O)[C@H](C(C)C)N(C)C)[C@H]1Cc1c[nH]c2ccccc12`, the CC50 [1] was greater than 600 nM.

Work on `COC1=CC(=O)N(C(=O)/C=C/[C@H](C)NC(=O)[C@H](CC2CCCCC2)NC(=O)[C@H](CC2CCCCC2)NC(=O)[C@H](C(C)C)N(C)C)[C@H]1Cc1c[nH]c2ccccc12` yielded a CC50 [1] greater than 600 nM.

In the case of `COC1=CC(=O)N(C(=O)/C=C/[C@@H](NC(=O)[C@H](CC(C)C)NC(=O)[C@H](CC2CCCCC2)NC(=O)[C@H](C(C)C)N(C)C)C2CCCCC2)[C@H]1Cc1c[nH]c2ccccc12`, the CC50 [1] is reported as greater than 600 nM.

For `COC1=CC(=O)N(C(=O)/C=C/[C@H](C)NC(=O)[C@H](CCc2ccccc2)NC(=O)[C@H](CC2CCCCC2)NC(=O)[C@H](C(C)C)N(C)C)[C@H]1Cc1c[nH]c2ccccc12`, the CC50 [1] was greater than 600 nM.

For `COC1=CC(=O)N(C(=O)/C=C/[C@@H](CCc2ccccc2)NC(=O)[C@H](CC(C)C)NC(=O)[C@H](CC(C)C)NC(=O)[C@H](C(C)C)N(C)C)C1Cc1ccc(-c2ccccc2)cc1` (some centres undefined), the IC50 (Cruzipain) was 0.12 nM, the EC50 (Trypanosoma cruzi) was 13 nM and the CC50 [1] was greater than 600 nM.

`COC1=CC(=O)N(C(=O)/C=C/[C@H](CCc2ccccc2)NC(=O)[C@H](CC(C)C)NC(=O)[C@H](CC(C)C)NC(=O)C2CCN(C)CC2)C1Cc1ccc(-c2ccc(C#N)cc2)cc1` (some centres undefined) showed an IC50 (Cruzipain) of 0.13 nM, an EC50 (Trypanosoma cruzi) of 423 nM and a CC50 [1] greater than 600 nM.

With `COC1=CC(=O)N(C(=O)/C=C/[C@@H](CCc2ccccc2)NC(=O)[C@H](CC(C)C)NC(=O)[C@H](CC(C)C)NC(=O)[C@H](C(C)C)N(C)C)C1Cc1ccc(-c2ccc(OC)cc2)cc1` (some centres undefined) the IC50 (Cruzipain) was 0.28 nM, the EC50 (Trypanosoma cruzi) was 19 nM and the CC50 [1] was greater than 600 nM.

`COC1=CC(=O)N(C(=O)/C=C/[C@H](CCc2ccccc2)NC(=O)[C@H](CC(C)C)NC(=O)[C@H](CC(C)C)NC(=O)C2CCN(C)CC2)C1Cc1ccc(-c2ccc(C(F)(F)F)cc2)cc1` (some centres undefined) gave an IC50 (Cruzipain) of 0.79 nM, an EC50 (Trypanosoma cruzi) of 420 nM and a CC50 [1] greater than 600 nM.

For `COC1=CC(=O)N(C(=O)/C=C/[C@H](CCc2ccccc2)NC(=O)[C@H](CC(C)C)NC(=O)[C@H](CC(C)C)NC(=O)C2CCN(C)CC2)C1Cc1ccc(-c2ccccc2)cc1` (some centres undefined), the IC50 (Cruzipain) was 0.4 nM, the EC50 (Trypanosoma cruzi) was 222 nM and the CC50 [1] was greater than 600 nM.

For `COC1=CC(=O)N(C(=O)/C=C/[C@@H](CCc2ccccc2)NC(=O)[C@H](CC(C)C)NC(=O)[C@H](CC(C)C)NC(=O)[C@H](C(C)C)N(C)C)C1Cc1ccc(-c2ccc(C#N)cc2)cc1` (some centres undefined), the IC50 (Cruzipain) was 0.11 nM, the EC50 (Trypanosoma cruzi) was 19 nM and the CC50 [1] was greater than 600 nM.

`COC1=CC(=O)N(C(=O)/C=C/[C@@H](CCc2ccccc2)NC(=O)[C@H](CC(C)C)NC(=O)[C@H](CC(C)C)NC(=O)[C@H](C(C)C)N(C)C)C1Cc1ccc(-c2ccc(C(F)(F)F)cc2)cc1` (some centres undefined) showed an IC50 (Cruzipain) of 0.68 nM, an EC50 (Trypanosoma cruzi) of 78 nM and a CC50 [1] greater than 600 nM.

`CCCC[C@H]1O[C@@H]1/C=C/C=O` showed an IC50 (Cruzipain) of 29.7 nM and a CC50 [1] greater than 600 nM.

`COC1=CC(=O)N(C(=O)/C=C/[C@H](CCc2ccccc2)NC(=O)[C@H](CC(C)C)NC(=O)[C@H](CC(C)C)NC(=O)C2CCN(C)CC2)C1Cc1ccc(-c2ccc(OC)cc2)cc1` (some centres undefined) showed an IC50 (Cruzipain) of 0.26 nM, an EC50 (Trypanosoma cruzi) of 261 nM and a CC50 [1] greater than 600 nM.

Compound `COC1=CC(=O)N(C(=O)/C=C/[C@H](CCc2ccccc2)NC(=O)[C@H](CC(C)C)NC(=O)[C@H](CC(C)C)NC(=O)C2CCN(C)CC2)C1Cc1ccc(-c2ccc3ccccc3c2)cc1` (some centres undefined) has an IC50 (Cruzipain) of 1.56 nM, an EC50 (Trypanosoma cruzi) of 521 nM and a CC50 [1] greater than 600 nM.

In the case of `COC1=CC(=O)N(C(=O)/C=C/[C@@H](CCc2ccccc2)NC(=O)[C@H](CC(C)C)NC(=O)[C@H](CC(C)C)NC(=O)[C@H](C(C)C)N(C)C)C1Cc1ccc(-c2ccc3ccccc3c2)cc1` (some centres undefined), the IC50 (Cruzipain) is reported as 0.69 nM, the EC50 (Trypanosoma cruzi) is reported as 59 nM and the CC50 [1] is reported as greater than 600 nM.

Compound `O=C(Cn1ccnc1[N+](=O)[O-])NCc1ccccc1` [BENZNIDAZOLE] has an EC50 (Trypanosoma cruzi) of 1910 nM and a CC50 [1] greater than 600 nM.

With `CC[C@H](C)[C@@H](C(=O)O[C@@H](CC(C)C)C(=O)N[C@@H](CC(C)C)C(=O)N[C@@H](C)/C=C/C(=O)N1C(=O)C=C(OC)[C@@H]1C)N(C)C` [GALLINAMIDE A] the IC50 (Cruzipain) was 1.3 nM and the CC50 [1] was greater than 600 nM.
